Measured values from patent US10829464B2, “Benzoheterocyclic alkylamine compounds and use thereof” (priority 2016, dated 2020).
In brackets after ≈: the same amount, converted by molar mass.

Tests used:
S. aureus = test: Human whole blood killing assay; assay type: cell-based, Staphylococcus aureus; conditions: four strains, fresh human blood, 6 h
Text: Compound IA-25 was used as a representative compound. The main object of the invention was to impair the ability of bacteria to resist immunological killing in vivo by inhibiting staphyloxanthins synthesis.
The calculated survival rate of bacteria after blood killing=(count of bacteria grown in sample after blood killing×dilution factor)/(count of bacteria grown in control group×dilution factor)×100%.

Microsporum gypseum = test: In vitro antifungal assay (micro liquid-based dilution); assay type: cell-based; conditions: Nannizzia gypsea, read-out: Antifungal Activities, MIC80
Tinea barbae = test: as above; assay type: cell-based; conditions: read-out: Antifungal Activities, MIC80
LRSA202 = test: In vivo pharmacodynamics evaluation in infected mice; conditions: BALB/c mice infected retroorbitally with LRSA202
Method: (§1) Compound IA-25 was used as a representative compound. The laboratory SPF-grade female BALB/c mice were purchased from Shanghai Jiesijie Laboratory Animal Co., Ltd. and bred under aseptic condition to 6-8 weeks old. The S. aureus strains which had been cultured overnight were transferred to fresh and sterile TSB medium and cultured at 37° C. and 250 rpm for 3 h to exponential growth phase; the culture was washed twice with PBS buffer, and then suspended in PBS for later use. In the mouse infection assay, the mice were divided into several groups, each containing 10 mice.

strain Newman = test: as above; conditions: BALB/c mice infected retroorbitally with Newman
Method: as §1

NF65Y = test: as above; conditions: BALB/c mice infected retroorbitally with NF65Y
Method: as §1

CYP enzyme subtype 3A4M = CYP enzyme subtype 3A4M (Homo sapiens, UniProt P08684); test: Inhibition assay on hepatic CYP450 enzyme; assay type: in vitro ADME; conditions: CYP 3A4M; read-out: Half inhibitory concentration (IC50)
CYP enzyme subtype 3A4T = CYP enzyme subtype 3A4T (Homo sapiens, UniProt P08684); test: Inhibition assay on hepatic CYP450 enzyme; assay type: in vitro ADME; conditions: CYP 3A4T; read-out: Half inhibitory concentration (IC50)
[1] = tested on: Staphylococcus aureus subsp. aureus str. strain Newman; test: Preliminary screening assay of inhibition of staphyloxanthin synthesis; assay type: cell-based
Method: Strains used for assay: freshly activated wild-type Staphylococcus aureus subsp. aureus str. strain Newman and its homologous mutant strain having crtN insertion (without staphyloxanthin synthesis).
Medium for assay: Tryptone Soy broth (TSB), a product from Oxid Corporation, the United Kingdom, which was formulated with distilled water, sterilized at 121° C. for 15 min for later use.
Method of Preliminary Screening Assay:
(1) Preparation of compound: the compound of the invention was dissolved in dimethyl sulfoxide (DMSO) to prepare a stock solution having a concentration of 10 mM; 400 μL of DMSO was added to 100 μL of the stock solution to get a dilution with a concentration of 2 mM; 250 μL (2 mM) of the dilution was taken after mixing, and an equal amount of DMSO was added thereto for 2-fold dilution to get a solution with a concentration of […] for later use.
(2) Culture of the strain: single colonies of strain Newman were picked from TSA plates into a test tube containing 4 mL of sterile TSB medium, and cultured at 37° C. and 250 rpm for 12 h for later use.

[2] = tested on: wild-type S. aureus Newman strain; test: Verification assay using CrtN as a target (HPLC of carotenoid extract); assay type: cell-based, Staphylococcus aureus; conditions: 100 μM added to wild-type strain Newman, 440 nm
[3] = rat, in vivo, 1000 mg/kg
Text: Thirty rats weighing 180-220 g, half male and half female, were picked out and randomly divided into three groups.

Trichophyton rubrum = test: In vitro antifungal assay (micro liquid-based dilution); assay type: cell-based; conditions: read-out: Antifungal Activities, MIC80

Chain of CYP enzyme subtype 3A4M (P08684 whole entry): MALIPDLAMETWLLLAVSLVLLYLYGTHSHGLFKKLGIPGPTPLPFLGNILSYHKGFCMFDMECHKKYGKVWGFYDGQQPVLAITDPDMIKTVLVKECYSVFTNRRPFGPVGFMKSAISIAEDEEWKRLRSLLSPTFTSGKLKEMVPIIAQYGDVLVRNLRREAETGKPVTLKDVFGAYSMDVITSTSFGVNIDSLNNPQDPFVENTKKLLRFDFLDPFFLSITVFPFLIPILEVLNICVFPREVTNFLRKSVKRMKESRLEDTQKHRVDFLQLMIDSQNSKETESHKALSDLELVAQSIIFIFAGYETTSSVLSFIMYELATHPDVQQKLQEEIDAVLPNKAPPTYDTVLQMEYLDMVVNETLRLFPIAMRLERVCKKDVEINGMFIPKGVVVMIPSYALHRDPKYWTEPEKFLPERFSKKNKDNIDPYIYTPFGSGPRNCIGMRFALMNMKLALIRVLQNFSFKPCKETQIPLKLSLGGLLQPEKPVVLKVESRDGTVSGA
Chain of CYP enzyme subtype 3A4T (P08684 whole entry): as above

Q: Which “bacterial survival rate after human blood killing” value (S. aureus) does the source give for CN(C/C=C/c1ccc(-c2ccccc2)cc1)Cc1coc2ccccc12 [Compound IA-25, (E)-N-methyl-N-[(benzofuran-3-yl)methylene]-3-(4-phenylphenyl)-prop-2-en-1-amine] here?
A: The value was “less than 3%”.

Q: What about the MIC80 (Microsporum gypseum) of the same molecule?
A: The MIC80 was 32 µg/mL (≈ 90.5 µM).

Q: What about the MIC80 (Tinea barbae) of the same molecule?
A: The MIC80 was > 64 µg/mL.

Q: And the “Viable colony counts in vivo” value (LRSA202)?
A: Its value is 4.9 Log10CFU.

Q: What about the “Viable colony counts in vivo” value (strain Newman) of the same molecule?
A: The value was 3.8 Log10CFU.

Q: What about the “Viable colony counts in vivo” value (NF65Y) of the same molecule?
A: The value was 3.5 Log10CFU.

Q: And the IC50 (CYP enzyme subtype 3A4M)?
A: The IC50 was > 10 µM.

Q: And the IC50 (CYP enzyme subtype 3A4T)?
A: Its IC50 is > 10 µM.

Q: And the “colors in final photograph of inhibition of staphyloxanthin synthesis” value ([1]; 50, 10, 5, 2.5, 1.25, 0.625, 0.3125 and 0 μM from left to right)?
A: Its value is “white to yellow from left to right gradually”.

Q: What about the “concentration at which staphyloxanthin synthesis is significantly inhibited” value ([1]; strain Newman, 24 h culture, lowest concentration tested) of the same molecule?
A: Its value is ≤ 0.3125 µM.

Q: What about the “HPLC absorption peaks of carotenoid extract” value [2] of the same molecule?
A: The value was “absorption peaks at the original peak position disappeared again”.

Q: What about the “abnormality in the dissected organs” value [3] of the same molecule?
A: The value was “there was not any abnormality in the dissected organs”.

Q: What about the “death or poor behavior events” value [3] of the same molecule?
A: Its value is “did not result in any death or poor behavior events in the rats”.

Q: And the MIC80 (Trichophyton rubrum)?
A: The MIC80 was 64 µg/mL (≈ 181 µM).

Q: What about the bioavailability (in vivo) of the same molecule?
A: Its bioavailability is 15 to 45%.
